Among the data in patent US20130217664A1, “NOVEL COMPOUNDS USEFUL FOR THE TREATMENT OF DEGENERATIVE AND INFLAMMATORY DISEASES” (priority 2012, published 2013) are IC50 values, retold here.

Assay type in all cases: biochemical
One experiment addresses T1, human JAK3 (Homo sapiens, UniProt P52333).
T1 construct: catalytic domain (amino acids 781-1124; catalog number PV3855); purchased Invitrogen PV3855
The experiment in a line: JAK3 inhibition assay. To be noted: recombinant human JAK3 catalytic domain; polyGT substrate. The gist of the method:
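Radiometric kinase assay: 0.5 ng JAK3 with 2.5 μg polyGT in Tris pH 7.5/MgCl2 buffer, 1 μM ATP plus 0.25 μCi 33P-γ-ATP, 1% DMSO, 45 min at 30 °C, stopped with phosphoric acid.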

In a further experiment the target is T2, human JAK1 (Homo sapiens, UniProt P23458).
T2 construct: catalytic domain, amino acids 866-1154; catalog number PV4774; purchased Invitrogen PV4774
T2 sequence (P23458 866-1154): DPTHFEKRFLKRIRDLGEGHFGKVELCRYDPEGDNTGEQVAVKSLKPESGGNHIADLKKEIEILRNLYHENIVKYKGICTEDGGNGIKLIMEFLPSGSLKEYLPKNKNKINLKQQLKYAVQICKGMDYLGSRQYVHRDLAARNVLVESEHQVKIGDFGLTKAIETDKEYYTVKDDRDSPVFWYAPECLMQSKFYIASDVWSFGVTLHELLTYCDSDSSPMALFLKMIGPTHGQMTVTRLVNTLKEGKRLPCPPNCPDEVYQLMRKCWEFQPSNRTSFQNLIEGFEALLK
The experiment in a line: JAK1 inhibition assay (polyGT substrate / Ulight-JAK1 peptide). The settings on record: recombinant human JAK1 catalytic domain; polyGT or Ulight-JAK1 peptide assay. The gist of the method:
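Two formats. PolyGT radiometric: 45 min at 30 °C, stopped with phosphoric acid, counted as cpm. Ulight-JAK1 peptide: 60 min at room temperature, stopped with Eu-anti-phosphotyrosine/EDTA, read as RFU. Percent inhibition normalised to vehicle and 10 μM staurosporine.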

The next experiment deals with T3, human JAK2 (Homo sapiens, UniProt O60674).
T3 construct: catalytic domain (amino acids 808-1132; catalog number PV4210); GST; purchased Invitrogen PV4210
T3 sequence (O60674 808-1132): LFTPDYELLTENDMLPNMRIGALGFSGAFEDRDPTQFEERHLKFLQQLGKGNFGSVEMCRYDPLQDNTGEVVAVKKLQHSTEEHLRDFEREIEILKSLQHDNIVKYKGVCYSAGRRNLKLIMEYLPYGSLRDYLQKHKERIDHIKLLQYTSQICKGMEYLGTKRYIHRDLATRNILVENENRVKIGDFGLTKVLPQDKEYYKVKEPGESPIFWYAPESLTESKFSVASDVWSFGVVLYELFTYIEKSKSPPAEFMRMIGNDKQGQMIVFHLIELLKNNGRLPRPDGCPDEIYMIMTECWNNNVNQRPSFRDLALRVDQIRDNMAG
The experiment in a line: JAK2 inhibition assay (polyGT substrate / Ulight-JAK1 peptide). To be noted: recombinant human JAK2 catalytic domain; polyGT or Ulight-JAK1 peptide assay. Put shortly:
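Radiometric: 0.025 mU JAK2 with 2.5 μg polyGT, 1 μM ATP plus ^33P-ATP in MOPS pH 7.5 buffer, 1% DMSO, 90 min at 30° C.; filter counting. Alternative TR-FRET format with Ulight-JAK1 peptide, 60 min at room temperature, Eu-anti-phosphotyrosine detection.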

The target of a further experiment is T4, human TYK2 (Homo sapiens, UniProt P29597).
T4 construct: catalytic domain (amino acids 871-1187; catalog number 08-147); purchased Carna Biosciences 08-147
T4 sequence (P29597 871-1187): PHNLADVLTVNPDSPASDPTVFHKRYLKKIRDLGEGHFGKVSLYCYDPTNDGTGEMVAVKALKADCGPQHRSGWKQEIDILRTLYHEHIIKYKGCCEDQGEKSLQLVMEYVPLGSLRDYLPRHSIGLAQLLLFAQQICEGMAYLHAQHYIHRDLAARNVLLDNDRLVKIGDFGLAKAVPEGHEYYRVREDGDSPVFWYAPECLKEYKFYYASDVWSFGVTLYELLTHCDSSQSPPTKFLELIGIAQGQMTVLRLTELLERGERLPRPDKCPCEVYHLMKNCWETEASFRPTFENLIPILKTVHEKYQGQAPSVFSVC
The experiment is described as follows: TYK2 inhibition assay. The settings on record: recombinant human TYK2 catalytic domain, polyGT substrate. Put shortly: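 Radiometric kinase reaction run 90 min at 30 °C, stopped with phosphoric acid, washed and scintillation-counted.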

Molecules are shown by their SMILES.

T1 sequence (P52333 781-1124): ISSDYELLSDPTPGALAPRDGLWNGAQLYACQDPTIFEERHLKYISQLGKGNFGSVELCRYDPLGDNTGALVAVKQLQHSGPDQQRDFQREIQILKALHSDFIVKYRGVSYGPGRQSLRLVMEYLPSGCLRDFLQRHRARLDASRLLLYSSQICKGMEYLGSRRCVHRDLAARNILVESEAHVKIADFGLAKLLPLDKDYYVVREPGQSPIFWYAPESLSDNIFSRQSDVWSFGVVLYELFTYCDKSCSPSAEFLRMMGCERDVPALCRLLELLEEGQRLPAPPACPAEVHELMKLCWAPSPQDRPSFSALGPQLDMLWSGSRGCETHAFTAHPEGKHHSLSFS

Broadly, the IC50 is the midpoint of a concentration-inhibition curve. Consider `CCc1cc(C2CN(C(=O)C3CC(F)(F)C3)C2)ncc1N(C)c1cc2c(cn1)ncn2C` [Compound 340], for which the IC50 on human JAK3 was above 1000 nM; on human JAK1, 101 to 500 nM; on human JAK2, above 1000 nM; at human TYK2, above 1000 nM.
`CN(c1cc2c(cn1)ncn2C)c1ccccc1Cl` [Compound 68, N-(2-Chlorophenyl)-N,1-dimethyl-1H-imidazo[4,5-c]pyridin-6-amine]: the IC50 on human JAK3 is above 1000 nM; on human JAK1, 101 to 500 nM; on human JAK2 it was above 1000 nM; at human TYK2, 501 to 1000 nM.
For the molecule `CN(c1cc2c(cn1)ncn2C)c1cc(C2CC2)nn1C` [Compound 306, (5-Cyclopropyl-2-methyl-2H-pyrazol-3-yl)-methyl-(1-methyl-1H-imidazo[4,5-c]pyridin-6-yl)-amine], the IC50 at human JAK3, on human JAK1, at human JAK2 and on human TYK2 was above 1000 nM throughout.
`CN(c1cc2c(cn1)ncn2C)c1ccc(C2CN(C(=O)N3CCC3)C2)cc1OC(F)F` [Compound 366, Azetidin-1-yl-(3-{3-difluoromethoxy-4-[methyl-(1-methyl-1H-imidazo[4,5-c]pyridin-6-yl)-amino]-phenyl}-azetidin-1-yl)-methanone]: the IC50 on human JAK3 is above 1000 nM; on human JAK1, 501 to 1000 nM; at human JAK2, above 1000 nM; at human TYK2 it was above 1000 nM.
For the molecule `CCc1cc(N2CCCC(C#N)C2)ncc1N(C)c1cc2c(cn1)ncn2C` (centres unmarked) [Compound 416, 4′-Ethyl-5′-[methyl-(1-methyl-1H-imidazo[4,5-c]pyridin-6-yl)-amino]-3,4,5,6-tetrahydro-2H-[1,2′]bipyridinyl-3-carbonitrile], the 50% inhibitory concentration (IC50) at human JAK3 lay in the range of 0.01 to 100 nM; at human JAK1, 0.01 to 100 nM; at human JAK2 it was 0.01 to 100 nM; on human TYK2, 101 to 500 nM.
Consider `CCN(c1ccc2c(cnn2C)c1)c1cc2c(cn1)ncn2C` [Compound 5, N-ethyl-1-methyl-N-(1-methyl-1H-indazol-5-yl)-1H-imidazo[4,5-c]pyridin-6-amine], for which the IC50 was above 1000 nM at human JAK3, 101 to 500 nM at human JAK1, above 1000 nM at human JAK2 and 501 to 1000 nM at human TYK2.
On to `CCc1cc(N2CC(C(=O)NCC#N)C2)ncc1N(C)c1cc2c(cn1)ncn2C` [Compound 401, 1-{4-Ethyl-5-[methyl-(1-methyl-1H-imidazo[4,5-c]pyridin-6-yl)-amino]-pyridin-2-yl}-azetidine-3-carboxylic acid cyanomethyl-amide], for which the IC50 at human JAK3 is above 1000 nM; at human JAK1, 101 to 500 nM; on human JAK2, 501 to 1000 nM; on human TYK2, above 1000 nM.
With `COCN(Cc1ccc(N(C)c2cc3c(cn2)ncn3C)c(F)c1)S(C)(=O)=O` [Compound 359, N-{3-Fluoro-4-[methyl-(1-methyl-1H-imidazo[4,5-c]pyridin-6-yl)-amino]-benzyl}-N-methoxymethyl-methanesulfonamide], the IC50 was above 1000 nM on human JAK3, 101 to 500 nM on human JAK1, 101 to 500 nM at human JAK2 and above 1000 nM at human TYK2.
Regarding `CCc1ccccc1N(Cc1ccccn1)c1cc2c(cn1)ncn2C` [Compound 461, N-(2-ethylphenyl)-1-methyl-N-(pyridin-2-ylmethyl)-1H-imidazo[4,5-c]pyridin-6-amine], the IC50 on human JAK3, on human JAK1, on human JAK2 and at human TYK2 was above 1000 nM in each case.
On to `CCc1ccccc1N(C)c1cc2c(cn1)ncn2C(F)F` [Compound 431, (1-Difluoromethyl-1H-imidazo[4,5-c]pyridin-6-yl)-(2-ethyl-phenyl)-methyl-amine], for which the IC50 on human JAK3 was 101 to 500 nM; on human JAK1, 101 to 500 nM; at human JAK2, above 1000 nM; on human TYK2, above 1000 nM.
Regarding `CCc1cc(C(C#N)N2CCOCC2)ncc1N(C)c1cc2c(cn1)ncn2C` (centres unmarked) [Compound 444, {4-Ethyl-5-[methyl-(1-methyl-1H-imidazo[4,5-c]pyridin-6-yl)-amino]-pyridin-2-yl}-morpholin-4-yl-acetonitrile], the IC50 lay within 101 to 500 nM at human JAK3, 0.01 to 100 nM at human JAK1, 0.01 to 100 nM on human JAK2 and 0.01 to 100 nM at human TYK2.
Consider `CCc1cc(CN2CC(C)(C)C2)ccc1N(C)c1cc2c(cn1)ncn2C` [Compound 382, [4-(3,3-Dimethyl-azetidin-1-ylmethyl)-2-ethyl-phenyl]-methyl-(1-methyl-1H-imidazo[4,5-c]pyridin-6-yl)-amine], for which the IC50 is above 1000 nM on human JAK3, 101 to 500 nM on human JAK1, above 1000 nM at human JAK2 and above 1000 nM on human TYK2.
In the case of `Cc1ccc(OCc2ccc(C#N)nc2)cc1N(C)c1cc2c(cn1)ncn2C` [Compound 92, 5-((4-methyl-3-(methyl(1-methyl-1H-imidazo[4,5-c]pyridin-6-yl)amino)phenoxy)methyl) picolinonitrile], the IC50 on human JAK3 is above 1000 nM; at human JAK1 it was 0.01 to 100 nM; on human JAK2, above 1000 nM; on human TYK2, above 1000 nM.
`CCc1cc(C2(C#N)CN(S(C)(=O)=O)C2)ncc1N(C)c1cc2c(cn1)ncn2C` [Compound 458, 3-{4-Ethyl-5-[methyl-(1-methyl-1H-imidazo[4,5-c]pyridin-6-yl)-amino]-pyridin-2-yl}-1-methanesulfonyl-azetidine-3-carbonitrile]: the IC50 is 501 to 1000 nM at human JAK3, 0.01 to 100 nM on human JAK1, 101 to 500 nM at human JAK2 and 501 to 1000 nM at human TYK2.
On to `CCC(=O)N1CC(c2cc(CC)c(N(C)c3cc4c(cn3)ncn4C)cn2)C1` [Compound 336, 1-(3-{4-Ethyl-5-[methyl-(1-methyl-1H-imidazo[4,5-c]pyridin-6-yl)-amino]-pyridin-2-yl}-azetidin-1-yl)-propan-1-one], for which the half-maximal inhibitory concentration (IC50) at human JAK3 is above 1000 nM; at human JAK1, 0.01 to 100 nM; on human JAK2, above 1000 nM; on human TYK2, above 1000 nM.
As to `CN(c1cc2c(cn1)ncn2C)c1ccc(C2CN(C(=O)N3CCCCC3)C2)cc1OC(F)F` [Compound 367, (3-{3-Difluoromethoxy-4-[methyl-(1-methyl-1H-imidazo[4,5-c]pyridin-6-yl)-amino]-phenyl}-azetidin-1-yl)-piperidin-1-yl-methanone], the IC50 was above 1000 nM at human JAK3, 501 to 1000 nM on human JAK1, above 1000 nM at human JAK2 and above 1000 nM on human TYK2.
Take `CCc1cc(-c2ccc(C#N)s2)ncc1N(C)c1cc2c(cn1)ncn2C` [Compound 301, 5-{4-Ethyl-5-[methyl-(1-methyl-1H-imidazo[4,5-c]pyridin-6-yl)-amino]-pyridin-2-yl}-thiophene-2-carbonitrile]: the IC50 on human JAK3, on human JAK1, at human JAK2 and on human TYK2 was 0.01 to 100 nM in each case.
